According to patent publication US20230248731A1, “COMPOSITION AND MEDICAMENT OF PALBOCICLIB ISETHIONATE” (NANJING GRITPHARMA CO., LTD., priority 2020, published 2023):

Tests used:
[1] = background statement; cited from earlier work
[2] = Solubility of palbociclib isethionate at different pH values; assay type: physicochemical
Text: First, the applicant has studied the solubility of palbociclib isethionate in water, a hydrochloric acid solution with a pH of 1.0, a phosphate buffer with a pH of 6.8 and an acetate buffer with a pH of 4.5 (as shown in Table 3). […] However, the palbociclib isethionate enters the intestinal tract rapidly on an empty stomach, and the pH environment becomes neutral and weakly alkaline. As the solubility of the palbociclib isethionate is extremely low at a pH of 6.8, absorption of the palbociclib isethionate will be affected by the solubility, which is extremely unfavorable to the absorption and utilization of the palbociclib isethionate.

[3] = Pharmacokinetics of palbociclib isethionate after single oral administration in 125 mg (Pfizer study 1036); assay type: in vivo, human; conditions: single oral 125 mg
Protocol: Existing clinical tests have also shown that the palbociclib isethionate has different bioavailability values before or after a meal. Pharmacokinetics of the palbociclib isethionate in healthy subjects after single administration were evaluated by Pfizer Pharmaceutical, an original research company. Different effects are achieved when the medicine is taken before or after a meal. Compared with administration before a meal, administration after a meal has the advantages that the Cmax value is increased by 7%, and the AUCinf value is increased by about 9%. The food prolongs the retention time of the medicine in the gastric juice, so that the bioavailability is improved. The basic reason is that as the pH environment in the stomach and intestines is different, the palbociclib isethionate has inconsistent dissolution and release conditions, resulting in different bioavailability values. Therefore, when the dissolution of the palbociclib isethionate can be improved under neutral and weakly alkaline conditions, great benefits will be brought to application of the palbociclib isethionate to the treatment of related diseases in the human body.

SMILES | Solubility in water (in words) [1] | Solubility ([2]; acetate buffer pH 4.5) | Solubility ([2]; hydrochloric acid solution pH 1.0) | Solubility (in words) ([2]; pH 6.8) | Solubility ([2]; phosphate buffer pH 6.8) | Solubility ([2]; water) | Increase of AUCinf, administration after a meal compared with before a meal [3] | Increase of Cmax, administration after a meal compared with before a meal [3]
CC(=O)c1c(C)c2cnc(Nc3ccc(N4CCNCC4)cn3)nc2n(C2CCCC2)c1=O [palbociclib in a free alkali form, palbociclib] | poor solubility in water | – | – | – | – | – | – | –
CC(=O)c1c(C)c2cnc(Nc3ccc(N4CCNCC4)cn3)nc2n(C2CCCC2)c1=O.O=S(=O)(O)CCO [palbociclib isethionate] | – | 84.7 mg/mL | 90.7 mg/mL | extremely low | 0.04 mg/mL | 84.8 mg/mL | about 9% | 7%
